Test system: IL-6 mediated proliferation of B9.9 cells
Assay: IL-6-dependent B9.9 cell proliferation assay
Assay type: cell-based, mouse
Details: peptide concentration = 250 μM
Description: Peptides according to the invention were synthesized by the solid phase peptide synthesis method (Merrifield, J. Am. Chem. Soc. 85:2149, 1963). The amino acid numbering of peptides derived from the IL-6 receptor (IL-6R) sequence is based on the published sequence of Yamasaki, et al, (Science 241:825, 1988), and numbering of peptides derived from the IL-6 sequence is based on the sequence of IL-6 as published by Hirano, et al. (Nature 324:73, 1986). The numbering refers to the position of the amino acids in the mature protein after excision of the signal sequence. Activity was established in an IL-6-dependent B9.9 cell proliferation assay as described hereunder.
IL-6 antagonist activity of the subject peptides was measured using the IL-6 dependent B9.9 hybridoma cell line as described in Brakenhoff et al., J. Immunol. […]
1×10^4 cells were cultured in presence of 4-fold serial dilutions (1:16 to 1:65,536) of F-IL-6 in RPMI supplemented with 10% fetal calf serum, 2 mM L-glutamine, and 5 ×10^-5 M 2-mercaptoethanol in flat bottom microtiter plates. After 2 days the cells were incubated for 4 hours with 3-(4,5-dimethylthiazol-2-yl)-diphenyl tetrazolium bromide (MTT) and the absorbance was measured at 570-650 nm as described in Mosmann, J. Immunol. […] One unit of IL-6 was defined as the amount of IL-6 required to obtain half maximal proliferation and was calculated by probit analysis. […]

Row | Substance | Percent Inhibition of IL-6 mediated proliferation of B9.9 cells [%]
1 | GAAAENNNLNLP | 29 ± 19
2 | Ac-GQLRAQEEFGQGE-NH2 [Ac-GQLRAQEEFGQGE-NH2] | 92 ± 6
